Reference: patent US20220054524A1, “NEW CONJUGATED NUCLEIC ACID MOLECULES AND THEIR USES” (ONXEO, priority 2018, published 2022)

How the values were obtained:
Assay type in all cases: cell-based
[1] = system: homologous recombination repair pathway; test: Homologous recombination pathway activity (Rad51 foci); settings: MDA-MB-231, olaparib 5 μM alone, 48 h
Experimental: (§1) Cell cultures were performed with the triple negative breast cancer cell line MDA-MB-231. Cells were grown in complete L15 Leibovitz medium and maintained at 37° C. in a humidified atmosphere at 0% Co2.
For immunostaining, cells are seeded on cover slips (Menzel, Braunschweig, Germany) at a concentration of 5×10^5 cells and incubated at 37° C. during 1 day. Cells are then treated with olaparib (5 μM)+/−OX401 (5 μM). 48 h after treatment, cells are fixed for 20 min in 4% paraformaldehyde/Phosphate-Buffered Saline (PBS 1×), permeabilized in 0.5% Triton X-100 for 10 min, blocked with 2% bovine serum albumin/PBS 1× and incubated with primary antibody for 1 h at 4° C. All secondary antibodies were used at a dilution of 1/200 for 45 min at Room Temperature (RT), and DNA was stained with 4′, 6-diamidino-2-phenylindole (DAPI). The following antibodies were used: primary monoclonal mouse anti-phospho-H2AX (Millipore, Guyancourt, France), anti-Rad51 rabbit antibody (Merk Millipore, Darmstadt, Allemagne), secondary goat anti-mouse IgG conjugated with Alexa-633 (Molecular Probes, Eugene, Oreg., USA) and secondary goat anti-rabbit IgG conjugated with Alexa-488 (Molecular Probes, Eugene, Oreg., USA).

MDA-MB-231 cells = test: Drug-induced DNA damage (γH2AX) by flow cytometry and immunofluorescence; settings: MDA-MB-231, 5 μM, 48 h
Experimental: as §1
For immunostaining, cells are seeded on cover slips (Menzel, Braunschweig, Germany) at a concentration of 5×10^5 cells and incubated at 37° C. during 1 day. Cells are then treated with olaparib (5 μM)+/−OX401 (5 μM). 48 h after treatment, cells are fixed for 20 min in 4% paraformaldehyde/Phosphate-Buffered Saline (PBS 1×), permeabilized in 0.5% Triton X-100 for 10 min, blocked with 2% bovine serum albumin/PBS 1× and incubated with primary antibody for 1 h at 4° C. All secondary antibodies were used at a dilution of 1/200 for 45 min at Room Temperature (RT), and DNA was stained with 4′, 6-diamidino-2-phenylindole (DAPI). […]
Cells were treated with OX401 (5 μM) or Olaparib (5 μM) for 48 hours and then fixed and permeabilized with cold (−20° C.) 70% ethanol for at least 2 hours. […] Fluorescence intensities were determined with a Guava EasyCyte cytometer (Luminex). Data were analyzed using FlowJo software (Tree Star, Calif.).

U937 cells = test: Selection of acquired resistance by repeated treatment cycles
Experimental: Cell cultures were performed with the lymphoma cell line U937. Cells were grown in complete RPMI medium supplemented with 10% FBS and 1% Penicillin/Streptomycin and maintained at 37° C. in a humidified atmosphere at 5% CO2. This cell line was chosen according to its high sensitivity to both OX401 and talazoparib. For repeated cycles of the treatment to select resistance, U937 cells were seeded at appropriate densities (2.10^5 cells/mL) and incubated 24 h at 37° C. before addition of the drug at doses corresponding to 10-20% survival compared to non-treated cells. Resistances were selected under 2 μM talazoparib or 1.5 μM OX401. Cells were harvested on day 4 after treatment, washed, and counted after staining with 0.4% trypan blue (Eve™ counting slides, NanoEnTek). After counting, cells were seeded in appropriate culture plates, and allowed to recover (drug free period) for 3 to 7 days. Another cycle of treatment/recovery was then started for up to 4 cycles.

[2] = system: Ta11, Ta12 and Ta13 resistant populations; test: XTT survival, talazoparib-resistant U937 populations; settings: Homo sapiens, U-937, 96 h, 4 days
Experimental: (§2) Cell cultures were performed with the lymphoma cell line U937. Cells were grown in complete RPMI medium supplemented with 10% FBS and 1% Penicillin/Streptomycin and maintained at 37° C. in a humidified atmosphere at 5% CO2. This cell line was chosen according to its high sensitivity to both OX401 and talazoparib. To assess the acquired resistances irreversibility, U937 parental or resistant cells were seeded in 96 well-plates (2.10^4 cells/well) and treated with increasing concentrations of talazoparib for 4 days. Following drug exposure, cell survival was measured using the XTT assay (Sigma Aldrich). Briefly, the XTT solution was added directly to each well containing cell culture and the cells incubated for 5 hours at 37° C. before reading the absorbance at 490 nm and 690 nm using a microplate reader (BMG Fluostar, Galaxy). Cell survival was calculated as the ratio of living treated cells to living mock-treated cells. The IC50 (which represents the dose at which 50% of the cells are viable) was calculated by a non-linear regression model using GraphPad Prism software (version 5.04) by plotting the percentage viability against the Log of the drug concentration on each cell line.

U937 parental cells = test: XTT survival, U937 parental cells; settings: Homo sapiens, U-937, 96 h, 4 days
Experimental: as §2

| SMILES | γH2AX and Rad51 foci [1] | γH2AX DSB biomarker (double-strand breaks accumulation) (MDA-MB-231 cells) | Cell survival after the first cycle (U937 cells; U937, talazoparib 2 μM) | Cell growth during drug-free amplification periods (U937 cells; U937, talazoparib 2 μM or OX401 1.5 μM, cycles of treatment) | Cell survival after the forth cycle of treatment (U937 cells; U937, talazoparib 2 μM, 33 days after treatment start) | IC50 [2] | IC50 (U937 parental cells) |
| --- | --- | --- | --- | --- | --- | --- | --- |
| O=C(c1cc(Cc2n[nH]c(=O)c3ccccc23)ccc1F)N1CCN(C(=O)C2CC2)CC1 [olaparib] | accumulation of γH2AX Foci that co-localize with Rad51 foci | high phosphorylation of histone H2AX |  |  |  |  |  |
| Cn1ncnc1[C@H]1c2n[nH]c(=O)c3cc(F)cc(c23)N[C@@H]1c1ccc(F)cc1 [talazoparib] |  |  | 10% | recovered | more than 50% | > 4000 nM | 2000 nM |
